Our source for the IC50 values is US20020165236A1, “Compounds for the treatment of protozoal diseases” (priority 2001, published 2002).

Usually IC50 stands for the midpoint of a concentration-inhibition curve.

For this test, the system named is multiresistant Dd2 strain of Plasmodium falciparum. The test can be described thus: antiplasmodial action, [8-3H]hypoxanthine incorporation, Dd2 strain. It counts as cell-based. The following applies: read-out: in vitro antiplasmodial activity (IC50 value class). The procedure:
For the determination of the antiplasmodial action of the compounds, the multiresistant Dd2 strain of Plasmodium falciparum was used. The incorporation of [8-^3H]hypoxanthine into the parasitic nucleic acids was measured. The plasmodia were incubated at 0.3% parasitaemia and an erythrocyte haematocrit of 2.5% in the presence of different concentrations of the compounds in a final volume of 200-μl. The medium employed was RPMI 1640 which contained 10% of heat-treated human serum and 3 mg/l of gentamycin. in the incubations, the concentrations of the compounds varied from 0.3 to 100 μM. After 48 h, each batch was treated with 50 µl of […] (1 mCi/ml) and incubated for a further 18 h. The cells were filtered off, washed and suspended in 20 μl of scintillation fluid. The radioactive hypoxanthine absorbed by the parasites was then quantified using a scintillation counter.
The results were presented graphically and the IC50 value was determined using a fitting function. The value IC50, the ‘inhibition constant’, indicates the value in μMol/1 at which 50% inhibition occurs.
As to `N=C(N)c1ccc(NC(=O)Nc2ccc(S(=O)(=O)NCc3c(F)cccc3F)cc2)cc1` [Compound 54], the IC50 is below 1 µM.

Take `N=C(N)c1cccc(NC(=O)Nc2ccc(S(=O)(=O)NCc3ccc([N+](=O)[O-])cc3)cc2)c1` [Compound 59]: the IC50 was below 1 µM.

For `N=C(N)c1ccc(NC(=O)Nc2ccc(S(=O)(=O)NCc3ccc(F)cc3)cc2)cc1` [Compound 53], the IC50 is below 1 µM. The value for `N=C(NCC1CCCO1)c1cccc(NC(=O)Nc2ccc(S(=O)(=O)c3ccc([N+](=O)[O-])cc3)cc2)c1` (centres unmarked) [Compound 84] was 1 to 10 µM.

Turning to `N=C(N)c1cccc(NC(=O)Nc2ccc(S(=O)(=O)NCc3ccc(F)cc3)cc2)c1` [Compound 39], the IC50 was below 1 µM. Turning to `N=C(N)c1cccc(NC(=S)Nc2ccc(S(=O)(=O)NCc3cccc(F)c3)cc2)c1` [Compound 75], the IC50 was below 1 µM. Consider `CN1C(=O)c2ccc(NC(=O)Nc3cccc(C(=N)N)c3)cc2C1=O` [Compound 17], for which the IC50 lay within 10 to 100 µM. The value for `N=C(N)c1cccc(NC(=S)Nc2ccc(S(=O)(=O)NCc3cccc(C(F)(F)F)c3)cc2)c1` [Compound 78] was below 1 µM; that for `N=C(N)c1cccc(NC(=O)Nc2cccc(S(=O)(=O)NCc3ccc(S(N)(=O)=O)cc3)c2)c1` [Compound 58] was 1 to 10 µM; that for `N=C(N)c1cccc(NC(=O)Nc2ccc(NS(=O)(=O)c3ccccc3)c(O)c2)c1` [Compound 31] was 1 to 10 µM. For `N=C(N)c1cccc(NC(=O)Nc2ccc(S(=O)(=O)NCc3cc(F)cc(C(F)(F)F)c3)cc2)c1` [Compound 46], the 50% inhibitory concentration (IC50) lay within 1 to 10 µM.

As for `CSc1ccc(NC(=O)Nc2cccc(C(=N)NN)c2)cc1` [Compound 1], the IC50 was 1 to 10 µM.

As to `N=C(N)c1cccc(NC(=S)Nc2ccc(S(=O)(=O)c3ccc(NCCO)cc3)cc2)c1` [Compound 77], the IC50 was 1 to 10 µM. The value for `N=C(NCCN1CCOCC1)c1cccc(NC(=O)Nc2ccc(S(=O)(=O)NCc3ccc(S(N)(=O)=O)cc3)cc2)c1` [Compound 90] was below 1 µM.

Take `CC(=O)Nc1cccc(NC(=O)Nc2cccc(C(=N)N)c2)c1` [Compound 66]: the IC50 lay within 1 to 10 µM. The result for `N=C(N)c1cccc(NC(=O)Nc2ccc(S(=O)(=O)NCc3c(F)cccc3F)cc2)c1` [Compound 45] reads below 1 µM; that for `COC(=O)c1cc(NC(=O)Nc2cccc(C(=N)Nc3cccnc3)c2)cc(C(F)(F)F)c1` [Compound 86], 1 to 10 µM; that for `N=C(NO)c1cccc(NC(=O)Nc2ccc(S(=O)(=O)c3ccc([N+](=O)[O-])cc3)cc2)c1` [Compound 85], below 1 µM. The result for `N=C(N)c1cccc(NC(=O)Nc2ccc(Cl)c(C(F)(F)F)c2)c1` [Compound 9] reads below 1 µM. On to `N=C(N)c1cccc(NC(=O)Nc2ccc(S(=O)(=O)NC3C4CC5CC(C4)CC3C5)cc2)c1` (centres unmarked) [Compound 22], for which the IC50 lay within 10 to 100 µM. The value for `N=C(NCCN1CCCC1)c1cccc(NC(=O)Nc2ccc(S(=O)(=O)c3ccc([N+](=O)[O-])cc3)cc2)c1` [Compound 83] was 1 to 10 µM; that for `N=C(N)c1cccc(NC(=O)Nc2ccc(S(=O)(=O)NCc3cccc(F)c3)cc2)c1` [Compound 36] was below 1 µM; that for `N=C(N)c1cccc(NC(=O)Nc2cccc(C(=O)NC(c3ccccc3)c3ccccc3)c2)c1` [Compound 72] was 1 to 10 µM. The value for `COC(=O)c1cc(NC(=O)Nc2cccc(C(=N)N)c2)cc(C(F)(F)F)c1` [Compound 12] was 1 to 10 µM; that for `N=C(Nc1cccnc1)c1cccc(NC(=O)Nc2ccc(S(=O)(=O)c3ccc([N+](=O)[O-])cc3)cc2)c1` [Compound 82] was below 1 µM; that for `N=C(N)c1cccc(NC(=O)Nc2ccc(S(=O)(=O)NCc3ccc(C(F)(F)F)cc3)cc2)c1` [Compound 38] was below 1 µM. The result for `Cc1cc(-c2onc(C)c2C(=O)Nc2ccc(NC(=O)Nc3cccc(C(=N)N)c3)cc2)no1` [Compound 71] reads 1 to 10 µM. For the compound `N=C(N)c1cccc(NC(=O)Nc2ccc(S(=O)(=O)NCc3cc(F)ccc3F)cc2)c1` [Compound 42], the IC50 is below 1 µM.

With `N=C(N)c1cccc(NC(=O)C(=O)Nc2cccc(S(=O)(=O)NCc3ccccc3)c2)c1` [Compound 102, N-(3-benzylsulfamoylphenyl)-N′-(3-carbamimidoyl-phenyl)-oxalamide], the IC50 lay within 10 to 100 µM. Take `N=C(N)c1cccc(NC(=O)Nc2ccc(S(=O)(=O)c3ccc([N+](=O)[O-])cc3)cc2)c1` [Compound 63, 3-{3-[4-(4-nitrobenzenesulfonyl)-phenyl]-ureido}-benzamidine]: the IC50 was below 1 µM. The result for `COc1ccc(C(=O)Nc2cccc(NC(=O)Nc3cccc(C(=N)N)c3)c2)cc1` [Compound 69] reads below 1 µM; that for `N=C(N)c1cccc(NC(=O)C(=O)Nc2ccc(S(=O)(=O)NCc3ccccc3)cc2)c1` [Compound 101, N-(4-benzylsulfamoylphenyl)-N′-(3-carbamimidoyl-phenyl)-oxalamide], 1 to 10 µM; that for `CC(NS(=O)(=O)c1ccc(NC(=O)Nc2cccc(C(=N)N)c2)cc1)c1ccc(F)cc1` (centres unmarked) [Compound 48], 1 to 10 µM.

As for `N=C(NCCN1CCOCC1)c1cccc(NC(=O)Nc2cccc(C(F)(F)F)c2)c1` [Compound 93], the IC50 lay in the range of 1 to 10 µM.

For `N=C(N)c1cccc(NC(=O)Nc2ccccc2Br)c1` [Compound 3], the IC50 lay within 1 to 10 µM.

As to `N=C(N)c1cccc(NC(=O)Nc2ccc(S(N)(=O)=O)cc2)c1` [Compound 30], the IC50 was in the range of 1 to 10 µM. The result for `N=C(N)c1cccc(NC(=O)Nc2ccc(C(F)(F)F)cc2Br)c1` [Compound 11] reads 1 to 10 µM; that for `N=C(N)c1ccc(NC(=O)Nc2ccc(S(=O)(=O)NCc3cccc(F)c3)cc2)cc1` [Compound 52], below 1 µM. The value for `N=C(N)c1cccc(NC(=O)Nc2ccc(S(=O)(=O)NCc3cccc(OC(F)(F)F)c3)cc2)c1` [Compound 49] was 1 to 10 µM. The value for `N=C(N)c1cccc(NC(=O)Nc2ccc(S(=O)(=O)NCc3ccc(F)c(F)c3)cc2)c1` [Compound 44] was 1 to 10 µM; that for `N=C(N)c1cccc(NC(=O)Nc2ccc(S(=O)(=O)Nc3ccc4cccnc4c3)cc2)c1` [Compound 29] was 1 to 10 µM. As for `COC(=O)c1cc(NC(=O)Nc2cccc(C(=N)NCCN3CCCC3)c2)cc(C(F)(F)F)c1` [Compound 88], the IC50 is 1 to 10 µM. As for `N=C(N)c1cccc(NC(=O)Nc2ccc(S(=O)(=O)N3CCc4ccccc4C3)cc2)c1` [Compound 20], the IC50 lay in the range of 1 to 10 µM. The value for `N=C(NO)c1cccc(NC(=O)Nc2ccc(S(=O)(=O)NCc3ccc(S(N)(=O)=O)cc3)cc2)c1` [Compound 96] was 1 to 10 µM; that for `COC(=O)c1cc(NC(=O)Nc2cccc(C(=N)NCCN(C)C)c2)cc(C(F)(F)F)c1` [Compound 87] was 1 to 10 µM; that for `N=C(N)c1ccc(NC(=O)Nc2cccc(C(F)(F)F)c2)cc1` [Compound 2] was 1 to 10 µM. The result for `N=C(N)c1cccc(NC(=O)Nc2ccc(S(=O)(=O)Nc3ccc(-c4ccc(N)cc4[N+](=O)[O-])cc3)cc2)c1` [Compound 27] reads 1 to 10 µM.

`N=C(N)c1cccc(NC(=S)Nc2ccc(S(=O)(=O)NCc3ccc(C(F)(F)F)cc3)cc2)c1` [Compound 74]: the IC50 is below 1 µM. The value for `N=C(N)c1ccc(NC(=O)Nc2ccc(S(=O)(=O)NCc3ccc(S(N)(=O)=O)cc3)cc2)cc1` [Compound 51, 4-{3-[4-(4-sulfamoylbenzylsulfamoyl)-phenyl]-ureido}-benzamidine] was below 1 µM; that for `N=C(N)c1cccc(NC(=O)Nc2ccc(S(=O)(=O)NCc3cccc(C(F)(F)F)c3)cc2)c1` [Compound 37, 3-{3-[4-(3-trifluoromethyl-benzylsulfamoyl)-phenyl]-ureido}-benzamidine] was below 1 µM.

On to `N=C(N)c1cccc(NC(=O)Nc2ccc(C(F)(F)F)cc2)c1` [Compound 8], for which the IC50 lay in the range of 1 to 10 µM. On to `N=C(N)c1cccc(NC(=O)Nc2ccc(S(=O)(=O)Nc3ccccc3)cc2)c1` [Compound 26], for which the IC50 fell in the range of 1 to 10 µM. The result for `N=C(N)c1ccc(NC(=O)Nc2ccc(S(=O)(=O)NCc3c(F)ccc(F)c3F)cc2)cc1` [Compound 56] reads below 1 µM; that for `Cc1ccc(S(=O)(=O)Nc2cccc(NC(=O)Nc3cccc(C(=N)N)c3)c2)cc1` [Compound 32], 10 to 100 µM; that for `CSc1ccc(NC(=O)Nc2cccc(C(=N)N)c2)cc1` [Compound 7], 1 to 10 µM. The result for `N=C(N)c1cccc(NC(=O)Nc2cccc(S(=O)(=O)NCc3cccc(F)c3)c2)c1` [Compound 57] reads 1 to 10 µM.

`N=C(N)c1cccc(NC(=O)Nc2ccc(S(=O)(=O)NCc3c(F)ccc(F)c3F)cc2)c1` [Compound 47, 3-{3-[4-(2,3,6-trifluorobenzylsulfamoyl)-phenyl]-ureido}-benzamidine]: the IC50 is below 1 µM. The result for `CN(C)CCNC(=N)c1cccc(NC(=O)Nc2ccc(S(=O)(=O)c3ccc([N+](=O)[O-])cc3)cc2)c1` [Compound 81] reads 1 to 10 µM. The result for `O=C(Nc1cccc(C2=NCCN2)c1)Nc1cccc(C(F)(F)F)c1` [Compound 91] reads below 1 µM. The value for `N=C(N)c1cccc(NC(=O)Nc2ccc(S(=O)(=O)NCc3ccccc3F)cc2)c1` [Compound 40] was below 1 µM; that for `N=C(N)c1cccc(NC(=O)Nc2ccc(S(N)(=O)=O)cc2[N+](=O)[O-])c1` [Compound 28] was 1 to 10 µM; that for `N=C(N)c1cccc(NC(=O)Nc2ccc(S(=O)(=O)c3ccc(NCCO)cc3)cc2)c1` [Compound 65] was 1 to 10 µM.
